Experiments:
[1] = target: T1, 11 β-HSD type 2 (Rattus norvegicus, UniProt P50233); assay: 11 β-HSD type 2 inhibition, rat kidney homogenate, conversion F to E (radiometric TLC); format: biochemical; details: read-out: % inhibition of 11β HSD2 @ 10 μM, typical sd ± 5%, means n=2
T1 construct: Both the kidneys and livers were homogenised on ice in PBS-sucrose buffer; tissue Harlan Olac (rats); host or cells: Wistar rat kidney homogenate supernatant
T1 sequence (P50233 1-400): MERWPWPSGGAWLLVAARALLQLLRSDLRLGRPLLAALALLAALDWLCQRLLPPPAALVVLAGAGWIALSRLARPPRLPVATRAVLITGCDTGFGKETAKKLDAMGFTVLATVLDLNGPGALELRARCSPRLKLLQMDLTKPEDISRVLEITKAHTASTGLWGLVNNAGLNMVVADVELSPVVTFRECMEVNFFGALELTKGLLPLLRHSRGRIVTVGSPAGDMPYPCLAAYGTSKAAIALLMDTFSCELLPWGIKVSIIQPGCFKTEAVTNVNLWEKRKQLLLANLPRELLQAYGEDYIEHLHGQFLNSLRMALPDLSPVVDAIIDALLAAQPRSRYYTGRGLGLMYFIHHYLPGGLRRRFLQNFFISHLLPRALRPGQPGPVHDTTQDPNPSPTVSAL
Experimental: (§1) Enzymes—Rat livers and rat kidneys were obtained from normal Wistar rats (Harlan Olac, Bicester, Oxon, UK). Both the kidneys and livers were homogenised on ice in PBS-sucrose buffer (1 g/10 ml) using an Ultra-Turrax. After the livers and kidneys were homogenised the homogenate was centrifuged for five minutes at 4000 rpm. The supernatant obtained was removed and stored in glass vials at −20° C. The amount of protein per μl of rat liver and kidney cytosol was determined using the Bradford method.
The same procedure was used for the 11 β-HSD type 2 assay, the conversion F to E, to determine the amount of rat kidney to be used and the incubation time. Except this time the substrate solution contained ^3H—F and unlabelled F and the recovery contained ^14C-E and unlabelled E and cortisone has a Rf value of 0.65 on the TLC-plate.
(§2) In these assays the influence of different inhibitors on the 11 β-HSD activity both in reductive (type 1) and oxidative (type 2) directions were assessed. In the reductive direction E is the substrate and F the product and visa versa in the case of oxidation. The method described here is for the oxidative direction.
The substrate solution contained about 50,000 cpm/ml ^3H—F in PBS-sucrose and 0.5 μM F. 1 ml of the substrate solution was added to each tube, the inhibitors were also added, at a 10 μM concentration, to each tube except to the “control” and “blank” tubes. 150 μL was added to all tubes except to the blanks, this was done to correct for the amount of ^3H—F spontaneously formed. The tubes were incubated for 60 minutes in a mechanically shaken water bath at 37° C. The amount of kidney liver homogenate and incubation time used resulted from the enzyme- and time-dependency assay. After incubation 50 μL of recovery was added to correct for the losses made in the next steps, containing 5000 cpm/50 μL of ^14C-E and 50 μg/50 μL of unlabelled E (to visualise the spot on the TLC-plate). The aqueous mixture was then extracted with 4 ml of ether (2×30 sec cycle, vortex mix). After freezing the aqueous phase, the ether (upper) layer was decanted into smaller tubes and evaporated at 45° C. until completely dry. The residue was then re-dissolved in 6 drops of ether and transferred to a TLC-plate. The TLC-plate was developed in chloroform:methanol (9:1 v/v) solvent system, the TLC-plate ran for about 90 minutes until the solvent front had moved about 18 cm. The position of the product E was visualised under UV-light and cut out from the TLC-plate and put into scintillation vials. Radioactivity was eluted over 5 minutes with 0.5 ml methanol. 0.5 ml of PBS-sucrose and 10 ml of Ecoscint were then added and vortex mixed before counting in the scintillation counter. Before counting the samples, two total activity vials were prepared. These contained 0.5 ml of the substrate solution, 50 μL of the recovery, 0.5 ml of methanol and 10 ml of Ecoscint. These two total activity vials were needed to determine the amount of ^14C-E and ^3H—F added in the beginning to make the calculations.
To look at the percentage of inhibition four different concentrations, 1, 5, 10 and 20 μM, were used. The method for both the rat liver, type 1 the reductive, and rat kidney, type 2 the oxidative, stay the same throughout the entire experiment.
In this experiment the amount of rat liver homogenate and rat kidney homogenate added to each tube and the incubation time was determined. […] After drawing the graphs the optimal amount of rat liver cytosol and rat kidney cytosol and both their incubation times were selected. One important rule when selecting both variables, to select an amount of rat liver and rat kidney and incubation time on a linear part of the graph. This is done to avoid fluctuations in enzyme activity. The amount of rat liver cytosol selected was 25 μL and 90 minutes of incubation time, the amount of rat kidney cytosol selected was 150 μL and 60 minutes of incubation time. […]

[2] = target: T2, 11 β-HSD type 1 (Rattus norvegicus, UniProt P16232); assay: 11 β-HSD type 1 inhibition, rat liver homogenate, conversion E to F (radiometric TLC); format: biochemical; details: read-out: % inhibition of 11β HSD1 @ 10 μM, 10 μM, typical sd ± 5%, means n=2
T2 construct: Both the kidneys and livers were homogenised on ice in PBS-sucrose buffer; tissue Harlan Olac (rats); host or cells: Wistar rat liver homogenate supernatant
T2 sequence (P16232 whole entry): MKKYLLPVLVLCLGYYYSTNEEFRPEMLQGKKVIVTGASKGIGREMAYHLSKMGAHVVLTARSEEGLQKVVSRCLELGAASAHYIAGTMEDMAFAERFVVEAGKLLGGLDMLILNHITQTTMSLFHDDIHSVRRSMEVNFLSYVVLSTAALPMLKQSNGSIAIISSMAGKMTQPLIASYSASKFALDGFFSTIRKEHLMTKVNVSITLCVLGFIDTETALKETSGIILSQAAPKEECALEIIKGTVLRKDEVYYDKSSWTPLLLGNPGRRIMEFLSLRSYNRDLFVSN
Experimental: as §1
11 β-HSD type 1 is the enzyme responsible for the conversion E to F and this type of enzyme is present in rat liver. The substrate solution used in this assay contained 70,000 cpm/ml ^3H-E in PBS-sucrose and 0.5 μM of unlabelled E and co-factor NADPH (9 mg/10 ml of substrate solution). 1 ml of the substrate solution and the different amounts of rat liver homogenate was added to all tubes.
The amount of rat liver homogenate needed for an assay was determined by incubating the substrate solution with 25, 50, 100 and 150 μl for 30, 60, 90 and 120 minutes at 37° C. in a water bath with the tubes being mechanically shaken. After the incubation 50 μL of recovery solution was added, containing about 8,000 cpm/50 μL of ^14C—F and 50 μg/50 μL of unlabelled F for visualising the spot on the TLC-plate, to correct for the losses made in the next two steps. F was then extracted from the aqueous phase with 4 ml of ether (2×30 sec cycle, vortex mix). The aqueous phase was then frozen using dry-ice and the organic layer was decanted and poured into smaller tubes and evaporated. 6 drops of ether were then added to the small tubes to re-dissolve the residue which was transferred to an aluminium thin layer chromatography plate (TLC-plate). The TLC-plate was developed in a TLC tank under saturated conditions. The solvent system used was chloroform:methanol 9:1 (v/v). The F spots on the TLC-plate were visualised under UV-light and cut out from the TLC-plate (Rf=0.45). The spots from the TLC-plate were then put into scintillation vials and 0.5 ml of methanol was added to all vials to elute the radioactivity from the TLC-plate for 5 minutes. 10 ml of Ecoscint was added to the scintillation vials and they were put into the scintillation counter to count amount of product formed.
as §2
The substrate solution contained about 50,000 cpm/ml ^3H—F in PBS-sucrose and 0.5 μM F. 1 ml of the substrate solution was added to each tube, the inhibitors were also added, at a 10 μM concentration, to each tube except to the “control” and “blank” tubes. 150 μL was added to all tubes except to the blanks, this was done to correct for the amount of ^3H—F spontaneously formed. The tubes were incubated for 60 minutes in a mechanically shaken water bath at 37° C. The amount of kidney liver homogenate and incubation time used resulted from the enzyme- and time-dependency assay. After incubation 50 μL of recovery was added to correct for the losses made in the next steps, containing 5000 cpm/50 μL of ^14C-E and 50 μg/50 μL of unlabelled E (to visualise the spot on the TLC-plate). The aqueous mixture was then extracted with 4 ml of ether (2×30 sec cycle, vortex mix). After freezing the aqueous phase, the ether (upper) layer was decanted into smaller tubes and evaporated at 45° C. until completely dry. The residue was then re-dissolved in 6 drops of ether and transferred to a TLC-plate. The TLC-plate was developed in chloroform:methanol (9:1 v/v) solvent system, the TLC-plate ran for about 90 minutes until the solvent front had moved about 18 cm. The position of the product E was visualised under UV-light and cut out from the TLC-plate and put into scintillation vials. […]

Row | SMILES | melting point [°C] | inhibition at 10 µM [1] [%] | inhibition at 10 µM [2] [%]
1 | Cc1c(Cl)cccc1S(=O)(=O)Nc1ccc2c(c1)nc(C)n2CCO | 245 to 247 |  | 
2 | Cc1c(Cl)cccc1S(=O)(=O)Nc1ccc2nc(C)n(CCO)c2c1 | 213 to 214.5 |  | 
3 | COc1ccc(S(=O)(=O)Nc2ccc3sc(C)nc3c2)cc1OC [compound 707] |  | 11 | 21
4 | Cc1nc2cc(NS(=O)(=O)c3c(C)c(C)cc(C)c3C)ccc2s1 [compound 706] |  | 7 | 29
5 | Cc1c(Cl)cccc1S(=O)(=O)Nc1ccc2c(c1)nc(C)n2-c1ccccc1 | 254 to 256 |  | 
6 | Cc1c(Cl)cccc1S(=O)(=O)Nc1ccc2ncsc2c1 [compound 750] |  | 10 | 4
7 | Cc1nc2cc(N(S(=O)(=O)c3ccccc3C#N)S(=O)(=O)c3ccccc3C#N)ccc2s1 [compound 731] |  | 12 | 45
8 | Cc1c(Cl)cccc1S(=O)(=O)Nc1ccc2[nH]c(=O)sc2c1 [compound 753] |  | 2 | 8
9 | Cc1c(Cl)cccc1S(=O)(=O)Nc1ccc2nc(C)n(C)c2c1 | 265 to 266 |  | 
10 | CCOC(=O)CSc1nc2ccc(NS(=O)(=O)c3cccc(Cl)c3C)cc2s1 [compound 752] |  | 1 | 5
11 | COCCSc1nc2ccc(NS(=O)(=O)c3cccc(Cl)c3C)cc2s1 [compound 754] |  | 6 | 20
12 | CCN(CC)C(=O)CSc1nc2ccc(NS(=O)(=O)c3cccc(Cl)c3C)cc2s1 [compound 755] |  | 8 | 21
13 | CC(=O)Nc1ccc(S(=O)(=O)Nc2ccc3sc(C)nc3c2)cc1 [compound 711] |  | 6 | 37
14 | Cc1nc2cc(NS(=O)(=O)c3c(C)c(C)c4c(c3C)CCC(C)(C)O4)ccc2s1 [compound 713] |  | 3 | 26
15 | Cc1nc2cc(NS(=O)(=O)c3c(F)c(F)c(F)c(F)c3F)ccc2s1 [compound 712] |  | 3 | 24
16 | CC(=O)c1ccccc1S(=O)(=O)N(c1ccc2sc(C)nc2c1)S(=O)(=O)c1ccccc1C(C)=O [compound 730] |  | 9 | 32
